According to patent US12263248B2, “Compounds and compositions for intracellular delivery of therapeutic agents” (ModernaTX, Inc., priority 2018, dated 2025):
Marks after values point to notes of the source that are not given here.

Experiments:
[1] = Particle size and polydispersity index of nanoparticle compositions (Zetasizer Nano ZS); format: physicochemical; conditions: for PDI (Polydispersity index): lipid nanoparticle, ±SD within one assay run (Table 37)
Summary of the method: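 Nanoparticle compositions are diluted in 1×PBS, then size and polydispersity index are read on a Zetasizer Nano ZS instrument.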

hEPO mRNA = test: hEPO expression after intramuscular administration to mice; format: in vivo; conditions: for Fold increase in hEPO concentration relative to MC3: mice, 0.01 mpk, 6 hr time point; for Novel lipid/MC3 ratio, 6 hr. timepoint, i.m. hEPO: relative to MC3, Table 3G
luciferase (Luc) mRNA = test: Luc expression in liver, lung, spleen and femur 6 hours after intravenous administration; format: in vivo; conditions: mice, intravenous, 0.5 mpk
Summary of the method: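 LNP-formulated mRNA given IV to mice (n=3) at 0.5 mpk; at 6 h, bioluminescence imaged ex vivo 15 min after IP D-luciferin (15 mg/mL, 200 μL), organs imaged within 25 min. Values are total flux by region of interest.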

IL-6, IP-10 = test: Cytokine induction in mice upon intravenous administration; format: in vivo; set-up: Cytokine induction IL-6 / Cytokine induction IP-10: unit not given here; conditions: intravenous, 0.5 mpk, 6 hours
Summary of the method: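 Mice dosed intravenously with nanoparticle compositions at 0.5 mpk; serum cytokine concentrations (IL-6, IP-10) measured at 6 hours. MC3 formulation and PBS controls run alongside.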

[2] = Residual lipid levels in rat liver and spleen (UPLC-MS); format: in vivo; conditions: for % dose remaining Rat liver tissue, 48 h: Sprague Dawley rat liver 48 h after 2 mg/kg bolus dose mRNA; for % Lipid Remaining in liver, 48 h: assuming 300 g rat and 15 g liver; for % remaining dose in liver, 48 h: 2.0 mpk
Summary of the method: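 Rats received a single intravenous dose of lipid nanoparticle composition, and liver tissue was later collected to quantify residual lipid. Weighed tissue was homogenized in Milli-Q water (900 μL per 100 mg tissue) using an Omni probe homogenizer. 50 μL aliquots were mixed with 400 μL spiking solution, vortexed, centrifuged, and analyzed by UPLC on a C8 column with positive-mode ESI detection on a Sciex API5500 mass spectrometer.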

luciferase mRNA = test: Luciferase expression after subcutaneous administration to mice; format: in vivo, female CD-1 mice; conditions: for Novel lipid/MC3 expression ratio, s.c. Luc 0.5 mpk (AUC): relative to MC3; for Lipid/MC3 AUC ratio: luciferase; for AUC (luciferase expression): whole body BLI; for Novel lipid/MC3 ratio, s.c. Luc 6 hr.: relative to MC3, Table 3G
Summary of the method: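 Female CD-1 mice given luciferase mRNA in lipid nanoparticle formulations subcutaneously at 0.5 mpk. Expression read by whole-body bioluminescence imaging at 3, 6 and 24 h, with ex vivo liver, spleen and injection-site luminescence at 24 h.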

[3] = Table 1A, lipid:DSPC:cholesterol:PEG-DMG 50:10:38.5:1.5 mol %
[4] = Table 1B, formulated with hEPO mRNA
[5] = Table 1C, compositions for subcutaneous administration
[6] = Table 1D, for subcutaneous administration, # formulated with hEPO mRNA
[7] = nanoparticle composition with hEPO mRNA (Table 30)
[8] = Table 1E, compositions for subcutaneous administration
[9] = rat, intravenous, 0.2 mpk, 48 hours, Table 19A
[10] = rat, intravenous, 2 mpk, 48 hours, Table 19A

CCCCCCCCCCCOC(=O)CCCCCN(CCO)CCCCCCCC(=O)OC(CCCCCCCC)CCCCCCCC [Compound 25, Heptadecan-9-yl 8-((2-hydroxyethyl)(6-oxo-6-(undecyloxy)hexyl)amino)octanoate]
PDI ([1]; Table 1A): 0.10
Size (nm) [1, 3]: 85.8 nm
PDI [1, 4]: 0.14
Size (nm) [1, 4]: 69.7 nm
PDI [1, 5]: 0.16
Size (nm) [1, 5]: 76.3 nm
PDI [1, 6]: 0.13
Size (nm) [1, 6]: 77.6 nm
PDI (Polydispersity index) [1]: 0.10 ± 0.05
PDI [1, 7]: 0.230
Fold increase in hEPO concentration relative to MC3 (hEPO mRNA): 7.1
Novel lipid/MC3 ratio, 6 hr. timepoint, i.m. hEPO (hEPO mRNA): 7.1
Total Flux Femur (luciferase (Luc) mRNA): 4.40E+06
Total Flux Liver (luciferase (Luc) mRNA): 2.41E+09
Total Flux Lung (luciferase (Luc) mRNA): 1.51E+07
Total Flux Spleen (luciferase (Luc) mRNA): 3.11E+07
Cytokine induction IL-6 (IL-6, IP-10): 233.45
Cytokine induction IP-10 (IL-6, IP-10): 1194.13
% dose remaining Rat liver tissue, 48 h [2]: 1.3^e %
% lipid remaining in liver after 48 hours ([2]; liver, 48 hours): 1.32%
% Lipid Remaining in liver, 48 h ([2]; rats, 2 mpk): 1.32%
% remaining dose in liver, 48 h ([2]; rats, intravenous): 1.3%
Novel lipid/MC3 expression ratio, s.c. Luc 0.5 mpk (AUC) (luciferase mRNA; 0.5 mpk): (AUC: 1.7)
Lipid/MC3 AUC ratio (luciferase mRNA; 0.5 mpk): 1.70
AUC (luciferase expression) (luciferase mRNA; 0.5 mpk): 2.9156E+10 (p/s) * h
Novel lipid/MC3 ratio, s.c. Luc 6 hr. (luciferase mRNA): 1.73

CCCCCCCCCOC(=O)CCCCCCCN(CCO)CCCCCCCOC(=O)C(CCCCCCCC)CCCCCCCC [Compound 30, 7-((2-Hydroxyethyl)(8-(nonyloxy)-8-oxooctyl)amino)heptyl 2-octyldecanoate]
PDI ([1]; Table 1A): 0.15
Size (nm) [1, 3]: 59.4 nm
PDI [1, 4]: 0.13
Size (nm) [1, 4]: 76.3 nm
PDI [1, 5]: 0.12
Size (nm) [1, 5]: 81.7 nm
PDI [1, 6]: 0.11
Size (nm) [1, 6]: 89.8 nm
Fold increase in hEPO concentration relative to MC3 (hEPO mRNA): 9.2
Novel lipid/MC3 ratio, 6 hr. timepoint, i.m. hEPO (hEPO mRNA): 9.2
Total Flux Femur (luciferase (Luc) mRNA): 6.38E+06
Total Flux Liver (luciferase (Luc) mRNA): 2.68E+09
Total Flux Lung (luciferase (Luc) mRNA): 1.02E+07
Total Flux Spleen (luciferase (Luc) mRNA): 3.55E+07
Cytokine induction IL-6 (IL-6, IP-10): 152.51
Cytokine induction IP-10 (IL-6, IP-10): 1638.77
% Lipid Remaining in liver, 48 h ([2]; rats, 2 mpk): <0.01%
% remaining dose in liver, 48 h ([2]; rats, intravenous): <1%
Novel lipid/MC3 expression ratio, s.c. Luc 0.5 mpk (AUC) (luciferase mRNA; 0.5 mpk): (AUC: 6.38)
Lipid/MC3 AUC ratio (luciferase mRNA; 0.5 mpk): 6.38
AUC (luciferase expression) (luciferase mRNA; 0.5 mpk): 1.0932E+11 (p/s) * h
Novel lipid/MC3 ratio, s.c. Luc 6 hr. (luciferase mRNA): 6.53
factor by which MC3 is outperformed (luciferase mRNA; female CD-1 mice, 0.5 mpk): 6.5

CCCCC/C=C\C/C=C\CCCCCCCCC(CCCCCCCC/C=C\C/C=C\CCCCC)OC(=O)CCCN(C)C [MC3, DLin-MC3-DMA, reference compound]
PDI ([1]; Table 1A): 0.11
Size (nm) [1, 3]: 79.7 nm
PDI [1, 4]: 0.12
Size (nm) [1, 4]: 57.7 nm
PDI [1, 5]: 0.09
Size (nm) [1, 5]: 56.9 nm
PDI [1, 6]: 0.15
Size (nm) [1, 6]: 69.1 nm
PDI [1, 8]: 0.10
Size (nm) [1, 8]: 62.4 nm
PDI (Polydispersity index) [1]: 0.11 ± 0.04
PDI ([1]; lipid:DSPC:Chol:PEG-DMG (50:10:38.5:1.5), hEPO mRNA): 0.114
PDI [1, 7]: 0.220
Fold increase in hEPO concentration relative to MC3 (hEPO mRNA): 1
Total Flux Femur (luciferase (Luc) mRNA): 2.56E+06
Total Flux Liver (luciferase (Luc) mRNA): 2.57E+09
Total Flux Lung (luciferase (Luc) mRNA): 1.27E+07
Total Flux Spleen (luciferase (Luc) mRNA): 2.85E+07
Cytokine induction IL-6 (IL-6, IP-10): 124.42
Cytokine induction IP-10 (IL-6, IP-10): 504.90
% dose remaining Rat liver tissue, 48 h [2]: 61^e %
% dose remaining, liver, 24 h ([2]; Table 19B, liver, 24 h): 44%
% lipid remaining in liver after 48 hours ([2]; liver, 48 hours): 87%
Liver level [2, 9]: 11300 ng/g
Spleen level [2, 9]: 0.74 ng/g
Liver level [2, 10]: 140520 ng/g
Spleen level [2, 10]: 0.65 ng/g
Liver level ([2]; rats, 0.2 mpk, after 48 h): 25033 ng/g
Spleen level ([2]; rats, 0.2 mpk, after 48 h): 9440 ng/g
% Lipid Remaining in liver, 48 h ([2]; rats, 2 mpk): 87%
Liver level ([2]; rats, 2 mpk, after 48 h): 285333 ng/g
Spleen level ([2]; rats, 2 mpk, after 48 h): 129000 ng/g
lipid remained in the liver after 48 hours ([2]; rats, i.v., 0.2 mpk or 2.0 mpk): greater than 60%
% remaining dose in liver, 48 h ([2]; rats, intravenous): 74%
Lipid/MC3 AUC ratio (luciferase mRNA; 0.5 mpk): 1
AUC (luciferase expression) (luciferase mRNA; 0.5 mpk): 1.7127E+10 (p/s) * h
